Experimental data reported in patent US4406875A, “Radiolabeled amine compounds and their use” (Byk-Mallinckrodt CIL B.V., priority 1979, dated 1983).

What was measured:
blood clot factor XIII = assay: In vitro incorporation of the radiolabeled compound in casein by blood clot factor XIII (Km, Lineweaver-Burke plot); format: biochemical
Description: Incorporation of the radiolabeled compound produced in Example I in fibrin by means of the blood clot factor XIII was investigated in vitro in the following manner:
To about 400 ul of a physiolgical salt solution containing 10 units of Factor XIII per ml, the following solutions were successively added; (a) about 500 ul of 0.5 molar solution of cystein in a buffer solution of tris(hydroxymethyl)aminomethane having a pH of 7.4, (b) about 100 ul of a buffer solution of tris (hydroxymethyl) aminomethane having a pH of about 7.4 and in which about 250 units of thrombine per ml had been dissolved, (c) about 1200 ul of a buffer solution of tris(hydroxymethyl) aminomethane, (d) about 50 ul of 0.4 molar solution of calcium chloride in water, and (e) about 200 ul of 5% solution of casein in water. […]
After incubation of the test solutions at about 37° C. for about 15 minutes, the reaction was discontinued by the addition of about 200 ul of a 1 molar solution of monoidoacetic acid which has been brought to a pH of about 7.4 by a sodium hydroxide solution. […] The radioactivity in the high-molecular fraction was then measured to determine if the radiolabeled sulfonamide compound had indeed been incorporated into the casein. […]

[1] = Stability towards deiodination and tissue incorporation after intravenous administration to rabbits; format: in vivo, New Zealand white rabbits; settings: rabbit
Description: The radiolabeled amine compound N-(5-aminopentyl)-5-iodonaphthalenesulfonamide,I-`125 is tested for stability towards deiodination and for tissue incorporation by administering the compound to rabbits.
Two test solutions each of about 0.5 mCi of the above compound (spec. activity of about 1 mCi/mg) in about 1.45 ml of a physiological saline solution are prepared. A test solution is then intravenously administered to two New Zealand white rabbits, each weighing about 3 kg.
A blood sample is then taken from each rabbit at 12, 24, 36 and 72 hour periods after administration. The radioactivity of about 1 g of blood from samples for each time period is then measured. The measurements indicate that the radioactivity in the blood decreases slowly and that at about 72 hours after administration, about 20% of the initial radioactivity is still present in the blood. Due to the relatively slow disappearance of the subject compound from the bloodstream, the compound is therefore available in the bloodstream for a prolonged period of time which thereby increases its suitability to become incorporated into an occurring thrombus.
At the end of the 72 hour period, the rabbits are sacrificed and thereafter, the thyroid, liver, kidneys, lung, stomach wall, parotid glands, brains, muscle and bone tissue are removed and portions are measured for radioactivity. The thyroid contains only about 0.05% of the injected dose per gram which thereby indicates the stability of the subject compound towards deiodination. […] The liver contains about 0.04% and the gall bladder contains about 0.1% of the injected dose while the kidneys and the urine both contain about 0.3% of the dose.

fibrin = assay: Incorporation of the radiolabeled compound into a fibrin clot (human fibrinogen, Factor XIII, human thrombin); format: biochemical; settings: incubated about three and a half hours at about 37° C.; clot washed three times
Description: The radiolabeled amine compound N-(5-aminopentyl)-5-iodonaphthalenesulfonamide,I-125 is tested for its ability to be incorporated into fibrin.
The following solutions are mixed in a polystyrene test tube; (a) about 1 ml of a solution containing about 5 mg/ml of human fibrinogen (about 1.5×10^-5 M) and a tris-HCl buffer in a concentration of about 5×10^-3 M, the solution having a pH of about 7.4, (b) about 0.1 ml of a saline solution containing about 4×10^-2 units of blood Factor XIII, (c) about 0.1 ml of a 0.05 M cysteine solution having a pH of about 7.4, and (d) about 0.1 ml of a solution containing the N-(5-aminopentyl)-5-iodonaphthalenesulfonamide,I-125 compound in a concentration of about 2.3×10^-5 mmole and a radioactivity of about 1 μCi. Thereafter, about 0.2 ml of solution of about 0.05 M tris buffer and about 0.025 M CaCl2 which contains about 10 NIH units of human thrombin and has a pH of about 7.4 is added.
The resultant mixture is then incubated for about three and a half hours at about 37° C. whereupon a fibrin clot is formed. […] The radioactivity of the solution and the clot are then measured in a suitable detection apparatus. From these radioactivity measurements, it is determined that about 15% of the initial radioactivity is incorporated into the fibrin clot.

Km (blood clot factor XIII; casein as acceptor, 37° C., 15 minutes, pH 7.4, Lineweaver-Burke plot from measured radioactivity) [µM]	radioactivity in gall bladder ([1]; 72 hours)	radioactivity in kidneys ([1]; 72 hours)	radioactivity in liver ([1]; 72 hours)	radioactivity in urine ([1]; 72 hours)	initial radioactivity still present in the blood ([1]; about 0.5 mCi, about 72 hours after administration)	tissue uptake at 72 h ([1]; thyroid, 72 hours, indicates stability towards deiodination, read-out: radioactivity in thyroid) [%ID/g]	SMILES	incorporation in casein (in words) (blood clot factor XIII; casein)	initial radioactivity incorporated into the fibrin clot (fibrin)
250	–	–	–	–	–	–	NCCCCCNS(=O)(=O)c1cccc2c([131I])cccc12 [N-(5-aminopentyl)-5-iodonaphthalene-1-sulfonamide-I-131]	amply sufficient to be incorporated efficiently in casein	–
–	about 0.1 % of the injected dose	about 0.3 % of the dose	about 0.04 % of the injected dose	about 0.3 % of the dose	about 20%	~0.05	NCCCCCNS(=O)(=O)c1cccc2c([125I])cccc12 [N-(5-aminopentyl)-5-iodonaphthalenesulfonamide,I-125]	–	about 15%
